Assay [1] deals with CyPPO13 (Synechococcus sp. JA-3-3Ab PPO, SEQ ID NO: 4) variant F373L, MBP fusion. Briefly: PPO inhibition assay. The class given is biochemical. To be noted: herbicide 0-5,000 nM, 50 μM substrate. On the procedure:
(§1) The enzyme activities of PPO protein and PPO protein variants were examined, and inhibition assay by PPO-inhibiting herbicides was conducted. It was confirmed that the PPO protein has low water-solubility, but in case of being expressed as a fusion protein with MBP (maltose binding protein) (MBP-PPO), the PPO protein is able to be stably expressed as water-soluble form. Therefore, the wild type and variant proteins which were expressed in the form of fusion protein with MBP were used in the present test (refer to FIG. 4).
(§2) At first, a substrate of PPO protein, Protoporphyrinogen IX was synthesized. This process was performed in the space where nitrogen gas is streamed. 6 mg of protoporphyrin IX was dissolved in 20% (v/v) EtOH 20 ml, and stirred under dark condition for 30 minutes. The obtained protoporphyrinogen IX solution was put into a 15 ml screw tube in an amount of 800 and flushed with nitrogen gas for 5 minutes. To this, 1 g of sodium amalgam was added and vigorous shaking was performed for 2 minutes. The lid was open to exhaust hydrogen gas in the tube. Thereafter, the lid was closed and incubated for 3 minutes. The […] was filtered using syringe and cellulose membrane filter. To 600 μl of the obtained […], 2M MOPS [3-(N-morpholino)propanesulfonic acid] was added in an amount of approximately 300 thereby adjusting pH to 8.0. To determine the enzyme activity of PPO protein, a reaction mixture was prepared with the following composition (based on 10 ml): 50 mM Tris-Cl (pH 8.0); 50 mM NaCl; 0.04% (v/v) Tween 20; 40 mM glucose (0.072 g); 5 units glucose oxidase (16.6 mg); and 10 units catalase (1 μl).
(§3) Two hundred microliters (200 μl) of reaction mixture containing a purified PPO protein were placed in 96 well plates, and preincubated for 30 min at room temperature to reduce the oxygen concentration by the reaction of glucose oxidase-catalase. The mineral oil was layered and then the reaction was initiated by adding the substrate, […], to a final concentration of 50 μM. The reaction proceeded at room temperature for 30 min and the fluorescence of protoporphyrin IX was measured using Microplate reader (Sense, Hidex) (excitation: 405 nm; emission: 633 nm). To calculate the PPO enzyme activity, protoporphyrinogen IX solution was kept open in the air to oxidize the solution (overnight). To this, 2.7N HCl was added, and the absorbance at 408 nm was measured. A standard curve was generated using standard protoporphyrin IX, and the PPO activity was measured by calibration of protoporphyrin IX using the standard curve of protoporphyrin IX.
(§4) The final concentration of each herbicide was as follows: […]

Assay [2] relates to CyPPO13 (Synechococcus sp. JA-3-3Ab PPO, SEQ ID NO: 4) variant F373I, MBP fusion. As to the kind of experiment: PPO inhibition assay. The class given is biochemical. To be noted: herbicide 0-5,000 nM, 50 μM substrate. The procedure:
as §1, §2, §3, §4

In assay [3] the test system is CyPPO13 (Synechococcus sp. JA-3-3Ab PPO, SEQ ID NO: 4) variant F373H, MBP fusion. Briefly: PPO inhibition assay. To be noted: herbicide 0-5,000 nM, 50 μM substrate. Format: biochemical. On the procedure: as §1, §2, §3, §4
Assay [4] has as its system CyPPO13 (Synechococcus sp. JA-3-3Ab PPO, SEQ ID NO: 4) variant F373C, MBP fusion. Briefly: PPO inhibition assay. The class given is biochemical. To be noted: herbicide 0-5,000 nM, 50 μM substrate. On the procedure: as §1, §2, §3, §4
For assay [5], the system named is CyPPO13 (Synechococcus sp. JA-3-3Ab PPO, SEQ ID NO: 4) variant F373T, MBP fusion. Briefly: PPO inhibition assay. The class given is biochemical. To be noted: herbicide 0-5,000 nM, 50 μM substrate. The procedure: as §1, §2, §3, §4
Assay [6] relates to CyPPO13 (Synechococcus sp. JA-3-3Ab PPO, SEQ ID NO: 4) variant F373N, MBP fusion. As to the kind of experiment: PPO inhibition assay. To be noted: herbicide 0-5,000 nM, 50 μM substrate. The class given is biochemical. On the procedure: as §1, §2, §3, §4
Assay [7] concerns CyPPO13 (Synechococcus sp. JA-3-3Ab PPO, SEQ ID NO: 4) variant F373V, MBP fusion. As to the kind of experiment: PPO inhibition assay. Format: biochemical. To be noted: herbicide 0-5,000 nM, 50 μM substrate. On the procedure:
as §1, §2, §3, §4

Assay [8] concerns CyPPO13 (Synechococcus sp. JA-3-3Ab PPO, SEQ ID NO: 4) variant F373M, MBP fusion. As to the kind of experiment: PPO inhibition assay. To be noted: herbicide 0-5,000 nM, 50 μM substrate. Format: biochemical.
The subject of assay [9] is PPO-deficient BT3 E. coli (ΔPPO) with A. thaliana PPO1 mutant AtPPO1 SLYM (Y426M, S305L, SEQ ID NO: 7). Briefly: Growth of transformed BT3 (ΔPPO) on tiafenacil media. The class given is cell-based. The procedure:
(§5) After transforming PPO-deficient BT3 E. coli (ΔPPO) with CyPPO10 or CyPPO13, the transformed BT3 (ΔPPO) was cultured on LB agar plates containing PPO-inhibiting herbicide to examine the growth level of the transformed BT3 (ΔPPO). BT3 (ΔPPO) strain was obtained from Hokkaido University (Japan). The BT3 (ΔPPO) strain is deficient in hemG-type PPO and has kanamycin tolerance (refer to “Watanabe et al., Dual targeting of spinach protoporphyrinogen oxidase II to mitochondria and chloroplasts by alternative use of two in-frame […], JBC 2001 276(23):20474-20481; Che et al., Molecular Characterization and Subcellular Localization of Protoporphyrinogen Oxidase in Spinach Chloroplasts, Plant Physiol. 2000 September; 124(1):59-70”).
(§6) For seed culture of E. coli transformed with respective genes, each single colony of E. coli transformant as provided above was cultured in 3 ml of LB broth containing chloramphenicol overnight (220 rpm, 37° C.), and 50 to 100 μl were subcultured in a new 3 ml of LB broth, and they were cultured until absorbance (OD600) became 0.5 to 1, and they were diluted with LB broth to absorbance (OD600) of 0.5. The diluted solution was serially diluted again 5 times by a factor of one tenth with LB broth. […] The LB Agar media were incubated at 37° C., under light condition, and level of inhibiting growth was observed after 16 to 20 hours of incubation.
(§7) Plant physiol. 2003 133:736-747).

Assay [10] relates to PPO-deficient BT3 E. coli (ΔPPO) with wild type A. thaliana PPO1 (AtPPO1 WT, SEQ ID NO: 5). Described as above. The class given is cell-based. To be noted: 100 μM tiafenacil. The procedure: as §5, §6, §7
For assay [11], the system named is A. thaliana T3 lines with CyPPO10 wild type or mutants (F360M, F360I, F360L, F360C, A167C), CyPPO13 wild type or mutants (F373M, F373C, F373I, A177C …). Briefly: Seed germination of A. thaliana transformants on herbicide media. The class given is in vivo, Arabidopsis thaliana. To be noted: 7 days.

IC50, growth and seed germination data for one compound are collected here from patent US11466286B2, “Methods and compositions for conferring and/or enhancing herbicide tolerance using protoporphyrinogen oxidase or variant thereof” (FarmHannong Co., Ltd., priority 2016, dated 2022).

Each structure is given as a SMILES string.

Take `COC(=O)CCNC(=O)C(C)Sc1cc(-n2c(=O)cc(C(F)(F)F)n(C)c2=O)c(F)cc1Cl` (stereo not shown) [Tiafenacil]: the IC50 (in general, the concentration that gives 50% inhibition) in [1] amounted to 141 nM; in assay [2], 135 nM; in assay [3], 114 nM; in [4], 212 nM; in assay [5] it was 818 nM; in [6] it was 40 nM. Further, the IC50 came to 339 nM in [7] and 56 nM in assay [8]. For the same compound, the results for the growth result in assay [9] (400 μM tiafenacil), in assay [9] (from 100 μM tiafenacil) and in assay [10] were “hardly grew”, “gradually started to exhibit growth inhibition” and “did not grow”, respectively. Also, the seed germination entry in assay [11] (25 μM glufosinate+30 nM tiafenacil+40 nM saflufenacil) and in assay [11] (25 μM glufosinate+70 nM tiafenacil) was “germinated” throughout.
